Patent US20250163069A1, “HETEROCYCLIC DERIVATIVE, AND PHARMACEUTICAL COMPOSITION AND APPLICATION THEREOF” (priority 2022, published 2025)
Where two headings read alike, the source gives them in different places. Blank lines part the entries; values can stand above or below the compound they belong to.

How the values were obtained:
[1] = tested on: HCMV; assay: In vitro anti-HCMV activity, GFP reporter virus in MRC5 cells; assay type: cell-based, Human Cytomegalovirus
Protocol: (§1) Experimental method for in vitro biological activity study: The HCMV virus used in this experiment contains a reporter gene GFP. The inhibitory activity of the compounds against HCMV was detected by detecting the expression of GFP, and the cytotoxicity was also determined; the compounds were tested at 8 concentrations, with 3-fold gradient dilution, and double wells. MRC5 cells were seeded in microtiter plates at a certain density and cultured overnight at 37° C. in 5% CO2. The compounds and viruses were added the next day. […] The final concentration of DMSO in the cell culture medium was 0.5%, the cells were cultured at 37° C. in 5% CO2 for 7 days, the fluorescence value of each well was detected using Acumen, and the original data were used to calculate the antiviral activity of the compounds. The cytotoxicity experiment was the same as the antiviral experiment, but without viral infection; CCK-8 reagent was used to detect cell viability, and the original data were used to calculate the cytotoxicity of the compounds. Software GraphPad Prism was used to analyze the dose-response curves of the compounds and calculate the EC50 and CC50 values (see Table 1 for the results).

[2] = in vitro; assay type: cell-based; conditions: human
Protocol: as §1, with “compounds.” for “compounds. Software GraphPad Prism was used to analyze the dose-response curves of the compounds and calculate the EC50 and CC50 values (see Table 1 for the results).”

[3] = tested on: MRC5 cells; assay: in vitro; assay type: cell-based; conditions: human, 7 days
Protocol: as §1, with “compounds.” for “compounds. Software GraphPad Prism was used to analyze the dose-response curves of the compounds and calculate the EC50 and CC50 values (see Table 1 for the results).”

[4] = Hepatocyte metabolic stability test; assay type: in vitro ADME, Human; conditions: for half-life at 1 μM / hepatocyte CLint at 1 μM: tested compounds 1 μM; for CLint scaled at 1 μM: Human, scaled with 120 × 10^6 cells/g liver and 21 g liver/kg, read-out: CLint, hepatic
Protocol: (§2) Test method: The compounds to be tested will be co-incubated with human hepatocyte suspension at a concentration of 1 μM. At different time points, ice acetonitrile containing internal standard was added to the system to terminate the reaction, after vortexing and centrifugation, the supernatant was taken, and the test compounds in the supernatant were analyzed by LC-MS/MS method. The in vitro intrinsic clearance rate was calculated according to the clearance rate constant of the tested compounds in the incubation system. 7-ethoxycoumarin and 7-hydroxycoumarin were used as positive controls, and the blank culture medium incubation group without hepatocytes was used as negative control.
(§3) Data analysis: The ratio of the peak areas of the analyte/internal standard (Aanalyte/AIS) was obtained by the instrument, and the remaining percentage (% Control) was calculated from the ratio of Aanalyste/AIS in the sample at non-zero time point to that at the zero time point. Ln (% Control) was plotted against incubation time and linearly fitted. The clearance constant (k, min^−1), clearance half-life (T1/2, min), and in vitro intrinsic clearance rate (CLint, hepatocyte, μL/min/10^6 cells) of the tested compounds were calculated using the following equation.
(§4) CLint,hepatic (mL/min/kg) refers to the inherent clearance rate of liver in vivo.

[5] = tested on: human hepatocyte suspension; assay: Hepatocyte metabolic stability test; assay type: in vitro ADME; conditions: for k: Human hepatocytes 1.0 × 10^6 cells/mL, tested compounds 1 μM, positive control 3 μM
Protocol: as §2, §3, §4

[6] = cited from earlier work
[7] = tested on: CMV virus; conditions: after 28 days of treatment; cited from earlier work
[8] = Human betaherpesvirus 5, 168 h, HCMV with GFP reporter, MRC5 cells, 7 days, read-out: EC50
[9] = Human betaherpesvirus 5, MRC5, Table 1, read-out: activity in inhibiting HCMV
[10] = hepatocyte suspension, Human hepatocytes 1.0 × 10^6 cells/mL, positive control 3 μM
[11] = Human hepatocytes 1.0 × 10^6 cells/mL, positive control 3 μM

SMILES: COc1cccc(N2CCN(C3=Nc4c(F)cccc4[C@H](CC(=O)O)N3c3cc(C(F)(F)F)ccc3OC)CC2)c1 (racemic) [Letermovir (racemic), letermovir (racemic), reference compound]
EC50 ([1]; HCMV with GFP reporter, MRC5 cells, 7 days, read-out: EC50): 3.92 nM

SMILES: COc1cccc(N2CCN(C3=Nc4c(F)cccc4[C@H](CC(=O)OCOC(C)=O)N3c3cc(C(F)(F)F)ccc3OC)CC2)c1 [Compound I-8]
CC50 at 7 days [2]: > 50000 nM
EC50 [1, 8]: 1.47 nM

SMILES: COc1cccc(N2CCN(C3=Nc4c(F)cccc4C(CC(=O)O)N3c3cc(C(F)(F)F)ccc3OC)C[C@H]2C)c1 (stereo partly shown) [Compound I-23]
CC50 at 7 days [2]: > 50000 nM
EC50 [1, 8]: 0.28 nM
EC50 [1, 9]: < 1 nM

SMILES: COc1cccc(N2CCN(C3=Nc4c(F)cccc4[C@H](CC(=O)OCc4oc(=O)oc4C)N3c3cc(C(F)(F)F)ccc3OC)CC2)c1 [Compound I-17]
CC50 [3]: 43500 nM
EC50 [1, 8]: 1.52 nM

SMILES: COc1cccc(N2CCN(C3=Nc4c(F)cccc4[C@H](CC(=O)OCOC(=O)C(C)(C)C)N3c3cc(C(F)(F)F)ccc3OC)CC2)c1 [Compound I-13]
CC50 at 7 days [2]: > 50000 nM
EC50 [1, 8]: 2.76 nM

SMILES: COc1cccc(N2CCN(C3=Nc4c(F)cccc4[C@H](CC(=O)O)N3c3cc(C(F)(F)F)ccc3OC)C[C@H]2C)c1 [Compound I-25]
CC50 at 7 days [2]: > 50000 nM
EC50 [1, 8]: 0.17 nM
EC50 [1, 9]: < 1 nM
half-life at 1 μM [4, 10]: 74.9 h
hepatocyte CLint at 1 μM [4, 10]: 0.154 µL/min/1e6 cells
CLint scaled at 1 μM ([4]; hepatocyte suspension): 0.388 mL/min/kg
k [5]: 0.000154 min⁻¹
metabolic stability of human hepatocytes compared with letermovir ([5]; human hepatocytes): better metabolic stability

SMILES: COc1cc(N2CCN(C3=Nc4c(F)cccc4[C@H](CC(=O)O)N3c3cc(C(F)(F)F)ccc3OC)C[C@H]2C)ccn1 [Compound I-26]
CC50 at 7 days [2]: > 50000 nM
EC50 [1, 8]: 0.26 nM
EC50 [1, 9]: < 1 nM

SMILES: COc1cccc(N2CCN(C3=Nc4c(F)cccc4[C@H](CC(=O)OCOC(C)=O)N3c3cc(C(F)(F)F)ccc3OC)C[C@H]2C)c1 [Compound I-33]
CC50 at 7 days [2]: > 50000 nM
EC50 [1, 8]: 0.06 nM
EC50 [1, 9]: < 1 nM

half-life at 1 μM [4, 10]: 0.332 h
hepatocyte CLint at 1 μM [4, 10]: 34.8 µL/min/1e6 cells
CLint scaled at 1 μM ([4]; hepatocyte suspension): 87.7 mL/min/kg
k [5]: 0.0348 min⁻¹
SMILES: CCOc1ccc2ccc(=O)oc2c1 [7-ethoxycoumarin]

SMILES: COc1cccc(N2CCN(C3=Nc4c(F)cccc4[C@H](CC(=O)O)N3c3cc(C(F)(F)F)ccc3OC)CC2)c1 [Letermovir, letermovir]
bioavailability ([6]; hematopoietic cell transplant (HCT) recipients, letermovir alone): about 37%
bioavailability ([6]; with cyclosporin): 85%
CMV virus detection in the patient [7]: no CMV virus was detected
half-life at 1 μM [4, 10]: 5.27 h
hepatocyte CLint at 1 μM [4, 10]: 2.2 µL/min/1e6 cells
CLint scaled at 1 μM ([4]; hepatocyte suspension): 5.53 mL/min/kg
k [5]: 0.0022 min⁻¹

SMILES: COc1cccc(N2CCN(C3=Nc4c(F)cccc4C(CC(=O)OCc4oc(=O)oc4C)N3c3cc(C(F)(F)F)ccc3OC)C[C@H]2C)c1 (single isomer, unassigned) [Compound I-41]
CC50 at 7 days [2]: 39300 nM
EC50 [1, 8]: 0.15 nM
EC50 [1, 9]: < 1 nM

SMILES: COc1cccc(N2CC3CCC(C2)N3C2=Nc3c(F)cccc3C(CC(=O)O)N2c2cc(C(F)(F)F)ccc2OC)c1 (stereo not shown) [Compound I-19]
CC50 at 7 days [2]: 23800 nM
EC50 [1, 8]: 2.81 nM

SMILES: COc1cc(N2CCN(C3=Nc4c(F)cccc4C(CC(=O)O)N3c3cc(C(F)(F)F)ccc3OC)C[C@H]2C)ccn1 (stereo partly shown) [Compound I-24]
CC50 at 7 days [2]: > 50000 nM
EC50 [1, 8]: 0.46 nM
EC50 [1, 9]: < 1 nM

SMILES: O=c1ccc2ccc(O)cc2o1 [7-hydroxycoumarin]
half-life [4, 11]: 0.288 h
hepatocyte CLint at 1 μM [4, 11]: 40.1 µL/min/1e6 cells
CLint scaled at 1 μM ([4]; hepatocytes): 101 mL/min/kg
k [5]: 0.0401 min⁻¹

SMILES: COC(=O)OCOC(=O)C[C@H]1c2cccc(F)c2N=C(N2CCN(c3cccc(OC)c3)CC2)N1c1cc(C(F)(F)F)ccc1OC [Compound I-5]
CC50 at 7 days [2]: > 50000 nM
EC50 [1, 8]: 2.62 nM

SMILES: COc1cc(N2CCN(C3=Nc4c(F)cccc4[C@H](CC(=O)OCOC(C)=O)N3c3cc(C(F)(F)F)ccc3OC)C[C@H]2C)ccn1 [Compound I-53]
CC50 at 7 days [2]: > 50000 nM
EC50 [1, 8]: 0.32 nM
EC50 [1, 9]: < 1 nM

SMILES: COc1cc(N2CCN(C3=Nc4c(F)cccc4C(CC(=O)OCOC(C)=O)N3c3cc(C(F)(F)F)ccc3OC)CC2C)ccn1 (stereo not shown) [Compound I-49]
CC50 at 7 days [2]: > 50000 nM
EC50 [1, 8]: 0.46 nM
EC50 [1, 9]: < 1 nM
